# In ChEMBL document CHEMBL1124803, “Evolution of a series of peptidoleukotriene antagonists: synthesis and structure/activity relationships of 1,3,5-substituted indoles and indazoles” (J Med Chem, 1990):
# Activity calls are given as the source filed them. The calls are words filed in the database; no cut-off is given here.
# How the values were obtained:
# [1] = test system: Cysteinyl leukotriene receptor 1 (Cavia porcellus); test: Dissociation constant (Kb) against LTD4
# [2] = molecular target: Cysteinyl leukotriene receptor 1 (Cavia porcellus); test: Inhibition constant for displacement of [3H]LTD4 on guinea pig lung parenchymal membranes.
# [3] = molecular target: T1, Cysteinyl leukotriene receptor 1 (Cavia porcellus, UniProt Q2NNR5); test: Inhibition constant for displacement of [3H]LTD4 on guinea pig lung parenchymal membranes.; format: tissue-based, Lung parenchyma
# T1 sequence (Q2NNR5 whole entry): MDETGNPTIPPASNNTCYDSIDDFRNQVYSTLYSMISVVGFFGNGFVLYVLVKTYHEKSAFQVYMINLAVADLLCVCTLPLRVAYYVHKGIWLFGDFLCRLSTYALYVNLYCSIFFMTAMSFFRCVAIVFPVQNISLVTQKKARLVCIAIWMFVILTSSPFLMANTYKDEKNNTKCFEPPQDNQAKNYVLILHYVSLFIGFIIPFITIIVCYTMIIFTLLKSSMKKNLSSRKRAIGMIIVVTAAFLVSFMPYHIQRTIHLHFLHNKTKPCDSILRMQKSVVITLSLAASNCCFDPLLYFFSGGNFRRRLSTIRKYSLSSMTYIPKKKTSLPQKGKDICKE
# Cavia porcellus [4] = organism: Cavia porcellus; test: Inhibition of peptidoleukotriene LTE4 induced contraction of guinea pig tracheal spirals at the concentration of 1 uM.; format: functional; details: Trachea
# [5] = molecular target: T1, Cysteinyl leukotriene receptor 1; test: Displacement of [3H]LTD4 on guinea pig lung parenchymal membranes; format: tissue-based, Lung parenchyma
# Cavia porcellus [6] = test: Effective dose of compound was measured in vivo for blocking LTD4 induced dyspnea after po administration.; format: functional
# Cavia porcellus [7] = test: Percent protection of animals against aerosolized LTD4-induced dyspnea at the concentration of 0.6 mg/kg; Not significant; format: functional, organism-based; set-up: dose 0.6 mg/kg
# Cavia porcellus [8] = test: Percent protection of animals against aerosolized LTD4-induced dyspnea at the concentration of 1.8 mg/kg.; format: functional
# Cavia porcellus [9] = test: Percent protection of animals against aerosolized LTD4-induced dyspnea at the concentration of 0.6 mg/kg.; format: functional; details: inhaled or nasal
# Cavia porcellus [10] = organism: Cavia porcellus; test: Inhibition of peptidoleukotriene LTE4 induced contraction of guinea pig tracheal spirals at the concentration of 3.3 uM; Not significant; format: functional; details: Trachea
# Cavia porcellus [11] = organism: Cavia porcellus; test: Inhibition of peptidoleukotriene LTE4 induced contraction of guinea pig tracheal spirals at the concentration of 100 uM.; format: functional; details: Trachea
# Cavia porcellus [12] = organism: Cavia porcellus; test: Inhibition of peptidoleukotriene LTE4 induced contraction of guinea pig tracheal spirals at the concentration of 3.3 uM.; format: functional; details: Trachea
SMILES,pKB [1],Ki [2] [nM],other results
COc1cc(C(=O)NS(=O)(=O)c2ccccc2)ccc1Cc1cn(C2CCCC2)c2ccc(NC(=O)OC3CCCC3)cc12,7.84,67,–
COc1cc(C(=O)O)ccc1Cc1cn(C)c2ccc(NC(=O)NC3CCCC3)cc12,–,–,Ki [3]: 1120 nM
COc1cc(C(=O)NS(C)(=O)=O)ccc1Cc1cn(Cc2cccc(C#N)c2)c2ccc(NC(=O)CC3CCCC3)cc12,9,5.6,–
COc1cc(C(=O)O)ccc1Cc1cn(CC2CC2)c2ccc(NC(=O)OC3CCCC3)cc12,–,57,–
COCCn1cc(Cc2ccc(C(=O)O)cc2OC)c2cc(NC(=O)OC3CCCC3)ccc21,–,–,Ki [3]: 41 nM
C=CCn1cc(Cc2ccc(C(=O)O)cc2OC)c2cc(NC(=O)CCCCC)ccc21,–,–,inhibition at 1 µM (Cavia porcellus [4]): 43%
COc1cc(C(=O)O)ccc1Cn1ccc2ccc(NC(=O)OC3CCCC3)cc21,7.8,–,Ki [5]: 160 nM
COc1cc(C(=O)NS(=O)(=O)c2ccccc2Cl)ccc1Cc1nn(C)c2ccc(NC(=O)OC3CCCC3)cc12,–,0.3,ED50 (Cavia porcellus [6]): 1 mg/kg
CCCn1cc(Cc2ccc(C(=O)O)cc2OC)c2cc(NC(=O)OC3CCCC3)ccc21,7.72,–,Ki [3]: 58 nM
COc1cc(C(=O)O)ccc1Cn1ncc2ccc(NC(=O)CC3CCCC3)cc21,–,–,Ki [5]: 50 nM
COc1cc(C(=O)O)ccc1Cc1c[nH]c2ccc(NC(=O)OC3CCCC3)cc12,7.32,–,Ki [3]: 236 nM
CCCn1cc(Cc2ccc(C(=O)NS(=O)(=O)c3ccccc3)cc2OC)c2cc(NC(=O)NC3CCCC3)ccc21,9.2,–,Ki [5]: 0.5 nM
COc1cc(C(=O)NS(=O)(=O)c2ccccc2Cl)ccc1Cc1nn(C)c2ccc(NC(=O)CC3CCCCC3)cc12,–,0.25,ED50 (Cavia porcellus [7]): inactive; protection at 1.8 mg/kg (Cavia porcellus [8]): 71%
CCCc1c(OCCCCc2nnn[nH]2)ccc(C(C)=O)c1O [TOMELUKAST],–,–,Ki [5]: 2820 nM
CCCCCC(=O)Nc1ccc2c(c1)c(Cc1ccc(C(=O)O)cc1OC)cn2C,–,–,Ki [3]: 1900 nM; inhibition at 1 µM (Cavia porcellus [4]): 77%
COc1cc(C(=O)NS(=O)(=O)c2ccccc2C)ccc1Cc1cn(C)c2ccc(NC(=O)OC3CCCC3)cc12 [ZAFIRLUKAST],–,–,ED50 (Cavia porcellus [6]): 0.3 mg/kg
COc1cc(C(=O)O)ccc1Cn1ccc2ccc(NC(=O)CC3CCCC3)cc21,7.68,–,Ki [5]: 200 nM
COc1cc(C(=O)O)ccc1Cc1cn(C2CCCC2)c2ccc(NC(=O)OC3CCCC3)cc12,7.67,53,–
COc1cc(C(=O)NS(=O)(=O)c2ccccc2Cl)ccc1Cc1nn(C)c2ccc(NC(=O)CC3CCCC3)cc12,–,0.3,protection at 0.6 mg/kg (Cavia porcellus [9]): 48%
COc1cc(C(=O)NS(=O)(=O)c2ccccc2Cl)ccc1Cc1nn(C)c2ccc(NC(=O)NC3CCC3)cc12,–,0.1,ED50 (Cavia porcellus [6]): 1 mg/kg
COc1cc(C(=O)NS(=O)(=O)c2ccccc2C)ccc1Cc1nn(C)c2ccc(NC(=O)CC3CCCC3)cc12,–,0.3,protection at 0.6 mg/kg (Cavia porcellus [9]): 47%; protection at 1.8 mg/kg (Cavia porcellus [8]): 100%
CCCCCC(=O)Nc1ccc2c(c1)c(Cc1ccc(C(=O)O)cc1OC)cn2CC(=O)O,–,–,inhibition (Cavia porcellus [10]): inactive
COc1cc(C(=O)NS(=O)(=O)c2ccccc2)ccc1Cc1nn(C)c2ccc(NC(=O)OC3CCCC3)cc12,–,0.25,–
COc1cc(C(=O)NS(=O)(=O)c2ccccc2)ccc1Cc1cn(C)c2ccc(NC(=O)NC3CCCC3)cc12,–,–,Ki [5]: 0.8 nM; ED50 (Cavia porcellus [6]): ~35 mg/kg
COc1cc(C(=O)NS(=O)(=O)c2ccccc2C)ccc1Cc1cn(C)c2ccc(NC(=O)CC3CCCC3)cc12,9.64,–,Ki [5]: 0.5 nM; ED50 (Cavia porcellus [6]): 0.2 mg/kg

SMILES,pKB [1],Ki [2] [nM],other results
COc1cc(C(=O)NS(=O)(=O)c2ccccc2C)ccc1Cc1cn(C)c2ccc(NC(=O)NC3CCCC3)cc12,9.31,–,Ki [5]: 1.4 nM; ED50 (Cavia porcellus [6]): 0.9 mg/kg
COc1cc(C(=O)NS(=O)(=O)c2ccccc2Cl)ccc1Cc1cn(C)c2ccc(NC(=O)NC3CCCC3)cc12,10.2,0.7,–
COc1cc(C(=O)NS(=O)(=O)c2ccccc2Br)ccc1Cc1nn(C)c2ccc(NC(=O)OC3CCCC3)cc12,–,0.3,ED50 (Cavia porcellus [6]): 1.1 mg/kg
COc1cc(C(=O)O)ccc1Cc1nn(C)c2ccc(NC(=O)OC3CCCC3)cc12,–,–,Ki [5]: 160 nM
CCCCCC(=O)Nc1ccc2c(c1)c(Cc1ccc(C(=O)O)cc1OC)cn2Cc1ccccc1,–,–,inhibition at 1 µM (Cavia porcellus [4]): 38%
CCCn1cc(Cc2ccc(C(=O)NS(=O)(=O)c3ccccc3)cc2OC)c2cc(NC(=O)OC3CCCC3)ccc21,8.44,–,ED50 (Cavia porcellus [6]): 1 mg/kg
COc1cc(C(=O)O)ccc1Cc1cn(C)c2ccc(NC(=O)CC3CCCC3)cc12,–,–,Ki [3]: 80 nM; inhibition at 100 µM (Cavia porcellus [11]): 94%
COc1cc(C(=O)NS(=O)(=O)C(C)C)ccc1Cc1cn(Cc2cccc(C#N)c2)c2ccc(NC(=O)CC3CCCC3)cc12,9.28,6.8,–
COc1cc(C(=O)O)ccc1Cc1cn(Cc2cccc(C#N)c2)c2ccc(NC(=O)CC3CCCC3)cc12,8.55,10,–
COc1cc(C(=O)NS(=O)(=O)c2ccccc2Cl)ccc1Cc1cn(C)c2ccc(NC(=O)CC3CCCC3)cc12,9.85,0.3,–
COc1cc(C(=O)O)ccc1Cn1ncc2ccc(NC(=O)OC3CCCC3)cc21,–,–,Ki [5]: 80 nM
COc1cc(C(=O)NS(=O)(=O)c2ccccc2)ccc1Cc1cn(C)c2ccc(NC(=O)CC3CCCC3)cc12,9.8,–,Ki [5]: 0.3 nM; ED50 (Cavia porcellus [6]): 1 mg/kg
COCCn1cc(Cc2ccc(C(=O)NS(=O)(=O)c3ccccc3)cc2OC)c2cc(NC(=O)OC3CCCC3)ccc21,9.39,0.2,ED50 (Cavia porcellus [6]): 1.1 mg/kg
COc1cc(C(=O)NS(=O)(=O)c2ccccc2Br)ccc1Cc1cn(C)c2ccc(NC(=O)CC3CCCC3)cc12,10.1,0.5,–
COc1cc(C(=O)NS(=O)(=O)c2ccccc2C)ccc1Cc1c[nH]c2ccc(NC(=O)CC3CCCC3)cc12,9.69,–,Ki [5]: 1 nM; ED50 (Cavia porcellus [6]): 1.3 mg/kg
CCCn1cc(Cc2ccc(C(=O)O)cc2OC)c2cc(NC(=O)CC3CCCC3)ccc21,–,84,–
COc1cc(C(=O)O)ccc1Cc1nn(C)c2ccc(NC(=O)CC3CCCC3)cc12,–,132,–
CCCC(CC)C(=O)Nc1ccc2c(c1)c(Cc1ccc(C(=O)O)cc1OC)cn2C (stereo unspecified),–,–,Ki [3]: 1830 nM
COc1cc(C(=O)O)ccc1Cc1cn(C)c2ccc(NC(=O)OC3CCCC3)cc12,7.84,–,Ki [3]: 157 nM; inhibition at 100 µM (Cavia porcellus [11]): 75%
CCCCCC(=O)Nc1ccc2[nH]cc(Cc3ccc(C(=O)O)cc3OC)c2c1,–,–,inhibition at 3.3 µM (Cavia porcellus [12]): 64%
COc1cc(C(=O)NS(=O)(=O)c2ccccc2)ccc1Cc1cn(C)c2ccc(NC(=O)OC3CCCC3)cc12,9.69,0.8,ED50 (Cavia porcellus [6]): 2.5 mg/kg
COc1cc(C(=O)NS(=O)(=O)c2ccccc2)ccc1Cc1c[nH]c2ccc(NC(=O)OC3CCCC3)cc12,9.8,1.4,–
COc1cc(C(=O)O)ccc1Cc1cn(Cc2ccccc2)c2ccc(NC(=O)CC3CCCC3)cc12,–,70,–
CCn1cc(Cc2ccc(C(=O)O)cc2OC)c2cc(NC(=O)CC3CCCC3)ccc21,–,71,–
COc1cc(C(=O)NS(=O)(=O)c2ccccc2C)ccc1Cc1nn(C)c2ccc(NC(=O)OC3CCCC3)cc12,–,0.3,ED50 (Cavia porcellus [6]): 0.5 mg/kg
